# Assay results taken from patent US10570141B2, “Substituted pyrrolopyrimidine CDK inhibitor, pharmaceutical composition containing same and use thereof” (CHIA TAI TIANQING PHARMACEUTICAL GROUP CO., LTD., priority 2016, dated 2020).
# Structures can show the parent of a compound that is named as a salt. Where two headings read alike, the source gives them in different places.
# Tests used:
# Colo-205 cells = assay: Inhibition of proliferation of colon cancer cell line Colo-205 (Cell-Titer Glo); type: cell-based, human; conditions: 72 hours incubation, cell viability, read-out: IC50(Colo205)
# Procedure: (§1) Colo-205 (Crown Bioscience Inc.) and MCF7 (Beijing Jinzijing Biology Medicine Technology Co., Ltd.) cells were inoculated into a 96-well plate (Corning, Item No.: 3599) at a density of 1000 cells/well, and incubated overnight. A compound at different concentrations (10000 nM, 3000 nM, 1000 nM, 300 nM, 100 nM, 30 nM, 10 nM, 3 nM, 1 nM, 0.3 nM, 0 nM, final concentration of DMSO: 0.1%) was added on the next day, and the incubation was continued for additional 72 hours. The culture medium was sucked with a vacuum pump, 50 ul of Cell-Titer Glo reagent (Promega, Item No.: G7572) was added to each well, and shaken for 10 min. Chemiluminescent signals were collected by EnVision® Multilabel Reader (PerkinElmer Inc.) to detect the cell viability and calculate the half maximal inhibitory concentration of the compound for inhibiting cell proliferation.
# MCF7 cells = assay: Inhibition of proliferation of breast cancer cell line MCF7 (Cell-Titer Glo); type: cell-based, human; conditions: 72 hours incubation, cell viability
# Procedure: as §1
# [1] = rat, in vivo, po, 5 mg/kg
# Procedure: (§4) 3 Healthy adult male rats were used for each tested compound. The tested compound was suspended in 20% sulfobutyl ether-β-cyclodextrin at a concentration of 1 mg/mL, and then was intragastrically administered at a single dose of 5 mg/kg (administered volume: 5 mL/kg). The animals to be intragastrically administered were fasted overnight prior to the experiment, i.e., fasted from 10 h prior to the administration to 4 h after the administration, and blood samples were collected in 0.25, 0.5, 1, 2, 4, 6, 8 and 24 h after the intragastric administration. About 0.3 mL of whole blood was collected from the orbital venous plexus, and put in a heparin anticoagulant tube. The sample was centrifuged at 4° C. at 4000 rpm for 5 min. The plasma was transferred to a centrifuge tube, and kept at −80° C. until analysis. Concentration of the tested compound in the plasma sample was analyzed using non-validated liquid chromatography-tandem mass spectrometry (LC-MS/MS). Plasma concentration-time data of individual animals were analyzed using WinNonlin (Professional Edition, Version 6.3; Pharsight Corporation) software. A non-compartment model was used for concentration analysis.
# CDK6/CyclinD3 = CDK6/CyclinD3 (Homo sapiens (Human), UniProt Q00534); assay: In vitro kinase activity inhibition assay of CDK6/CyclinD3 (LANCE method); type: biochemical; conditions: recombinant CDK6/CyclinD3 4 nM, ATP 200 μM, 1 h room temperature
# Chain of CDK6/CyclinD3 (Q00534 whole entry): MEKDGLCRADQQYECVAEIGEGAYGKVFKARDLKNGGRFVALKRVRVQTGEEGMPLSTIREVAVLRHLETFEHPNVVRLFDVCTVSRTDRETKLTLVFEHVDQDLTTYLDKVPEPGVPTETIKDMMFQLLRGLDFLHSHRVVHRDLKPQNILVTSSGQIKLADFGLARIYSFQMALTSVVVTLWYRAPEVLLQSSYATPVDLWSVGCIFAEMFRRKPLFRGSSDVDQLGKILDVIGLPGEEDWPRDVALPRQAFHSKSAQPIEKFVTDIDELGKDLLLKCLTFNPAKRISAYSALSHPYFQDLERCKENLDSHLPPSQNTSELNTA
# Chain of CDK6/CyclinD3 (P30281 whole entry partner): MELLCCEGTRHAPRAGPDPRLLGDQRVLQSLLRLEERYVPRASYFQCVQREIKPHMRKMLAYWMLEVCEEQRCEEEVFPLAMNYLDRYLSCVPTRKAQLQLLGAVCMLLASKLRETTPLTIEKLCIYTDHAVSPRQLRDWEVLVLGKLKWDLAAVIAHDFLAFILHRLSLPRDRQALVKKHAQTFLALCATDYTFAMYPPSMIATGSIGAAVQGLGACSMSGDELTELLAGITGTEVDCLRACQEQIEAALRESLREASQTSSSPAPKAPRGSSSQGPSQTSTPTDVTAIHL
# Excerpt: (§2) A method for in vitro kinase activity inhibition assay of CDK4/CyclinD3 and CDK6/CyclinD3 is established as follows:
# (§3) LANCE method of PerkinElmer Inc. was used in the assay, and recombinant CDK4/CyclinD3 (Item No.: 04-105) and CDK6/CyclinD3 (Item No.: 04-107) kinases were purchased from Cama Biosciences, Inc. Substrate ULight-MBP (Item No.: TRF0109) and Eu-labeled anti-MBP antibody (Item No.: TRF0201) were purchased from PerkinElmer. HEPES PH7.5 (Item No.: #15630080), DTT (Item No.: # D1532), MgCl2 (Item No.: # AM9530G), EGTA (Item No.: # E1219), and EDTA (Item No.: # AM9260G) were purchased from Life Technology. Firstly, a 1× buffer solution A (50 mM HEPES, PH 7.5, 10 mM MgCl2, 1 mM EGTA, 0.01% Tween 20 and 2 mM DTT) was prepared. A compound to be tested was dissolved in DMSO to 1 mM, serially diluted with DMSO, and then diluted 25-fold with the buffer solution A (final concentration of DMSO: 1%). CDK4/CyclinD3 and CDK6/CyclinD3 were diluted respectively with the buffer solution A. Finally, the buffer solution A was used to prepare the substrate and ATP. 4 μl of CDK4/CyclinD3 (final concentration: 2 nM) or CDK6/CyclinD3 (final concentration: 4 nM), 2 μl of the diluted compound, and 4 μl of a mixture of the substrate (final concentration: 50 nM) and ATP (final concentration: 200 μM) were added to reaction wells, and the resulting mixture was kept at room temperature to react for 1 h. Then, an EDTA solution was added to terminate the reaction, and Eu-labeled anti-MBP antibody was added and the resulting mixture was incubated at room temperature for additional 1 h. EnVision was used to read fluorescent signals (excitation wavelength: […], emission wavelength: […]).
# CDK4/CyclinD3 = CDK4/CyclinD3 (Homo sapiens (Human), UniProt P11802); assay: In vitro kinase activity inhibition assay of CDK4/CyclinD3 (LANCE method); type: biochemical; conditions: recombinant CDK4/CyclinD3 2 nM, ATP 200 μM, 1 h room temperature
# Chain of CDK4/CyclinD3 (P11802 whole entry): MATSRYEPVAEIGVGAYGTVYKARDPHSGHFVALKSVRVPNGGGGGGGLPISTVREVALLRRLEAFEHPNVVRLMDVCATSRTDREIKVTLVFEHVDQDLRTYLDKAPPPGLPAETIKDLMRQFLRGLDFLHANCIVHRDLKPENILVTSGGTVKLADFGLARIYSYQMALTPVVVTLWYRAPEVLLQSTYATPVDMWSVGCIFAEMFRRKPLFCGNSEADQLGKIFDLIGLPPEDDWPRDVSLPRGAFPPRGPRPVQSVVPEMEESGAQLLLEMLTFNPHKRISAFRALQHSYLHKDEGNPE
# Chain of CDK4/CyclinD3 (P30281 whole entry partner): as the sequence (P30281 whole entry partner) above
# Excerpt: as §2, §3
# [2] = Pharmacokinetics evaluation in rats after intragastric administration; conditions: male, rat, plasma, po, 5 mg/kg
# Procedure: as §4
Structure (SMILES),IC50 (CDK6/CyclinD3) [nM],IC50 (CDK4/CyclinD3) [nM],IC50 (Colo-205 cells; Homo sapiens) [nM],IC50 (MCF7 cells; Homo sapiens) [nM],AUC(0-inf) [2] [ng·h/mL],Cmax [2] [ng/mL],Tmax [2] [h],half-life [2] [h],other results
"CN(C)C(=O)c1cc2cnc(Nc3ccc(N4CCNCC4)cn3)nc2n1C1CCCC1.Cl [Comparative Example 1, 7-cyclopentyl-2-(5-(piperazin-1-yl-pyridin-2-ylamino)-7H-pyrrolo[2,3-d]pyrimidine-6-carboxylic acid dimethylamide (ribociclib) hydrochloride]",,,,,,,,,IC50 (Colo-205 cells): 2690 nM; IC50 (MCF7 cells): 326 nM
CN(C)C(=O)c1cc2cnc(Nc3ccc(N4CCNCC4)cn3)nc2n1C1CCCC1.Cl [Comparative Example 1],,,,,,,,,AUC(0-inf) [1]: 120 ng·h/mL; Cmax [1]: 15.8 ng/mL; T1/2 [1]: 4.25 h; Tmax [1]: 2.67 h
"CS(=O)(=O)c1cc2cnc(Nc3ccc(C4=CCNCC4)cn3)nc2n1C1CCCC1.Cl [Example 4, 7-cyclopentyl-6-methylsulfonyl-N-(5-(1,2,3,6-4H-pyridin-4-yl)pyridin-2-yl)-7H-pyrrolo[2,3-d]pyrimidin-2-amine hydrochloride]",11.1,2.57,312,175,889,90,3,3.28,
"CN(C)C(=O)c1cc2cnc(Nc3ccc(C4=CCNCC4)cn3)nc2n1C1CCCC1.Cl [Example 6, 7-cyclopentyl-6-N,N-dimethylcarbamoyl-N-(5-(1,2,3,6-4H-pyridin-4-yl)pyridin-2-yl)-7H-pyrrolo[2,3-d]pyrimidin-2-amine hydrochloride]",30.6,2.37,1260,333,627,74.3,3.33,3.76,

# Further lines, with some results ahead:
IC50 (CDK6/CyclinD3) [nM],IC50 (CDK4/CyclinD3) [nM],Structure (SMILES),IC50 (Colo-205 cells; Homo sapiens) [nM],IC50 (MCF7 cells; Homo sapiens) [nM],AUC(0-inf) [2] [ng·h/mL],Cmax [2] [ng/mL],Tmax [2] [h],half-life [2] [h],other results
5.7,0.8,"CS(=O)(=O)c1cc2cnc(Nc3ccc(N4CCNCC4)cn3)nc2n1C1CCCC1 [Example 1, 7-cyclopentyl-6-methylsulfonyl-N-(5-(piperazin-1-yl)pyridin-2-yl)-7H-pyrrolo[2,3-d]pyrimidin-2-amine hydrochloride]",271,114,1960,255,1.33,7.23,
21,2.12,"CCS(=O)(=O)c1cc2cnc(Nc3ccc(N4CCNCC4)cn3)nc2n1C1CCCC1 [Example 2, 7-cyclopentyl-6-ethylsulfonyl-N-(5-(piperazin-1-yl)pyridin-2-yl)-7H-pyrrolo[2,3-d]pyrimidin-2-amine hydrochloride]",,,,,,,
18.7,3.4,"CN(C)C1CCN(c2ccc(Nc3ncc4cc(S(C)(=O)=O)n(C5CCCC5)c4n3)nc2)CC1 [Example 3, 7-cyclopentyl-6-methylsulfonyl-N-(5-(4-(dimethylamino)piperidin-1-yl)pyridin-2-yl)-7H-pyrrolo[2,3-d]pyrimidin-2-amine hydrochloride]",,,,,,,
9.85,1.46,"CS(=O)(=O)c1cc2cnc(Nc3ccc(C4CCNCC4)cn3)nc2n1C1CCCC1 [Example 5, 7-cyclopentyl-6-methylsulfonyl-N-(5-(piperidin-4-yl)pyridin-2-yl)-7H-pyrrolo[2,3-d]pyrimidin-2-amine hydrochloride]",470,,,,,,
